{"source": "patent US20240132519A1", "about": "“NRF2-ACTIVATING COMPOUND” (SENJU PHARMACEUTICAL CO., LTD., priority 2020, published 2024)", "key": {"NRF2": {"tested_on": "NRF2", "test": "Reporter assay: NRF2 activating action in HCE-T/ARE-Luc cells (ARE luciferase reporter gene assay)", "assay_type": "cell-based, human", "conditions": "Test Example 3; separated diastereomers; mean, N=3", "experimental": "The NRF2 activating action of the compounds on cells was measured by a reporter gene assay. pGL4.37[luc2P/ARE/Hygro] (Promega) was introduced into HCE-T cells using FuGENE HD. Cells that acquired drug resistance as a result of transduction were screened by culture in the presence of 50 μg/mL hygromycin, and a clone strain, HCE-T/ARE-Luc cells, was established.\nHCE-T/ARE-Luc cells were cultured using DMEM/F12 medium containing 10 ng/mL hEGF, 5 μg/mL insulin, 5% FBS, and 40 μg/mL gentamicin. As the assay medium, a medium with the same composition as that for the culture was prepared using phenol red-free DMEM/F12 medium.\nHCE-T/ARE-Luc cells were seeded in a 96-well polystyrene microplate (FALCON) with 10000 cells per well. The cells were incubated in a CO2 incubator at 37° C. for 16 hours to allow for cell adhesion. The test substance was dissolved in dimethylsulfoxide to prepare a solution at a concentration 1000 times higher than the test concentration. The cells were treated with the test substance diluted 1000-fold with the assay medium and cultured for 24 hours. When measuring the activity of the reporter, the medium containing the test substance was removed, and then a new medium and a substrate of ONE-GloEX Luciferase Assay System (Promega) were added. The plate was shaken for 1 minute and then allowed to stand at ordinary temperature for 10 minutes, and luminescence was detected using the GloMax Discover System (Promega).\nThe test was performed at N=3, and the 50% activation concentration of each test substance was calculated by creating a calibration curve between two concentrations across the luminescence incensity of 50%.\n(§1) Compounds A1/A2, compounds B1/B2, compounds C1/C2, and compounds D1/D2 were used as test substances. Binding assay and reporter assay were performed as in Test Example 1-1 and Test Example 1-2."}, "[1]": {"target": "binding between NRF2 and KEAP1 (Homo sapiens (Human), UniProt Q14145)", "sequence (Q14145 whole entry)": "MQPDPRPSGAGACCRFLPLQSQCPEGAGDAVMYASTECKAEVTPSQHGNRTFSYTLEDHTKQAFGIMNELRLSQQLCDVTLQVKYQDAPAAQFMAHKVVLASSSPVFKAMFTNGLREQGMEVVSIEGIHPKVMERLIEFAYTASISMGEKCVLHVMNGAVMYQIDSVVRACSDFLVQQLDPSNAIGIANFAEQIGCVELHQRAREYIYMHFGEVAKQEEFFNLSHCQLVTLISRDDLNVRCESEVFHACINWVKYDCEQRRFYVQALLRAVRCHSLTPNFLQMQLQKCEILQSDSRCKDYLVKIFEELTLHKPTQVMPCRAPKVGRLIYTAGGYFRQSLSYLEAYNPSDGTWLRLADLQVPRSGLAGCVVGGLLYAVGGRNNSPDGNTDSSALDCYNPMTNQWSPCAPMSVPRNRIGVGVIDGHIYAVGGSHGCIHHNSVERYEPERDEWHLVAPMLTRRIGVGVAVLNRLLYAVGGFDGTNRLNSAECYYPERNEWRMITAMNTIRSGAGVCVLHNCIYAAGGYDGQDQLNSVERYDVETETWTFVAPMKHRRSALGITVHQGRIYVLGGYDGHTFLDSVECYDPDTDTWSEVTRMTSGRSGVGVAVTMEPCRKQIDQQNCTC", "test": "Binding assay: inhibition of binding between NRF2 and KEAP1 by BRET (NanoLuc-NRF2 and KEAP1-HaloTag cell lysates)", "conditions": "Test Example 3; separated diastereomers; mean, N=2", "experimental": "The inhibitory activity of each compound on the binding between NRF2 and KEAP1 was measured by bioluminescence resonance energy transfer (BRET) assay. A plasmid having human NRF2 (Original Clone ID: ha01449s1) sequence fused with NanoLuc (19 kDa, Promega) at the N-terminal was transduced into HCE-T cells (immortalized human corneal epithelial cells) using FuGENE HD (Promega). 48 hours after transduction, the cell lysate was collected and used as an NRF2-expressing cell lysate. A plasmid having human KEAP1 (Original Clone ID: cs00328) sequence fused with HaloTag (33 kDa, Promega) at the C-terminal was transduced into HCE-T cells using FuGENE HD (Promega). After 24 hours, HaloTag Nano BRET 618 Ligand (Promega) was added to the medium. The cell lysate cultured for 24 hours after the addition was used as a KEAP1-expressing cell lysate.\nThe NRF2-expressing cell lysate and the KEAP1-expressing cell lysate were adjusted so that the luminescence and fluorescence intensities per well were constant. Tables 1 and 2 show the formulation of each reaction solution.\nEach test substance at a concentration 100 times higher than the test concentration was dissolved in dimethylsulfoxide for adjustment. 49 μL of KEAP1 solution was added to a 96-well polystyrene microplate (FALCON) to which 1 μL of each test substance solution was added, followed by incubation for 15 minutes. Then, 50 μL of NRF2 solution was added to the above solution, followed by incubation for 1 hour. To measure the binding between NRF2 and KEAP1, NanoBRET Nano-Glo Substrate (Promega) diluted with Opti-Mem (Thermo Fisher Scientific) was added, followed by shaking for 30 seconds. Then, luminescence and fluorescence were measured using the GloMax Discover System (Promega). A 495-nm short pass filter and a 600-nm long pass filter were respectively used to measure donor and acceptor emission values. A value obtained by dividing the acceptor emission value by the donor emission value was regarded as BRET value. A BRET value when the compound was not added, and a BRET value when the KEAP1 solution was not added were respectively used as binding rates of 100% and 0%, and the binding rate when the compound was added was calculated. Further, using this binding rate, the 50% binding inhibitory activity concentration (IC50) was calculated from the following formula. The test was performed at N=2.\nIC50(M)=10^(LOG(A/B)×(50−C)/(D−C)+LOG(B)) • A: higher concentration out of 2 close concentrations across the inhibition rate of 50% • B: lower concentration out of 2 close concentrations across the inhibition rate of 50% • C: inhibition rate at B • D: inhibition rate at A\nas §1"}, "HCE-T cells": {"tested_on": "HCE-T cells", "test": "Cell viability test in HCE-T cells (Cell Counting Kit-8, 24 hours)", "assay_type": "cell-based, human", "conditions": "mean, N=3", "experimental": "To confirm cell viability, HCE-T cells were seeded at 10000 cells per well in a 96-well polystyrene microplate (IWAKI). The cells were cultured in a CO2 incubator at 37° C. for 16 hours to allow the cells to adhere. The culture of the HCE-T cells was performed using DMEM/F12 medium containing 10 ng/mL hEGF, 5 μg/mL insulin, 5% FBS, and 40 μg/mL gentamicin.\nEach test substance was dissolved in dimethyl sulfoxide to prepare a stock solution with a concentration that is 1000 times the test concentration. DMEM/F12 medium containing 40 μg/mL gentamicin was used as assay medium. The medium containing serum and growth factors was removed and replaced with assay medium in which each test substance was appropriately serially diluted, and the cell viability was measured after 24 hours. Cell Counting Kit-8 (Dojindo Laboratories) was added to each well in an amount that is 1/10 the amount of the medium. Color reaction was performed for 1 hour in a CO2 incubator, and absorbance at 450 nm was measured with a microplate reader (Corona Electric Co., Ltd.). […] The test was performed at N=3."}}, "data": [{"smiles": "CC[C@@H]1CN(Cc2cc([C@@H](c3ccc(C(C)=O)s3)[C@@H](C)C(=O)O)ccc2C)S(=O)(=O)c2cnccc2O1", "note": "[Compound B1, (2R,3S)-3-(5-acetylthiophen-2-yl)-3-(3-{[(R)-4-ethyl-1,1-dioxide-3,4-dihydro-2H-pyrido[4,3-b][1,4,5]oxathiazepin-2-yl]methyl}-4-methylphenyl)-2-methylpropanoic acid]", "values": [{"measurement": "EC50", "setting": "NRF2", "result": 0.98, "unit": "nM"}, {"measurement": "IC50", "setting": "[1]", "result": 0.17, "unit": "nM"}, {"measurement": "Cytotoxic concentration (concentration that does not affect cell viability)", "setting": "HCE-T cells", "result": 345.4, "unit": "µM"}]}]}
